Measurements: patent US7863328B2, “Phenylbenzoic acid derivatives, processes for the preparation thereof, pharmaceutical compositions comprising them, and therapeutic uses thereof” (Merck Patent GmbH, priority 2005, dated 2011)

Target: T1, chimeric protein PPARγ-Gal4 (Homo sapiens, UniProt P37231)
T1 construct: expressed in transfected cells; host or cells: CV-1 cells (monkey kidney cells)
Test: PPARγ-Gal4 transactivation test (luciferase reporter) in cotransfected CV-1 cells
Type: cell-based
Protocol: The measurement of the PPAR activation was performed according to a technique described by Lehmann et al. (J. Biol. Chem., 270, (1995), 12953-12956).
CV-1 cells (monkey kidney cells) are cotransfected with an expression vector for the chimeric protein PPARγ-Gal4 and with a “reporter” plasmid that allows expression of the luciferase gene placed under the control of a promoter comprising Gal4 response elements.
The cells are seeded in 96-well microplates and cotransfected using a commercial reagent with the reporter plasmid (pG5-tk-pGL3) and the expression vector for the chimeric protein (PPARγ-Gal4). After incubation for 4 hours, whole culture medium (comprising 10% foetal calf serum) is added to the wells. After 24 hours, the medium is removed and replaced with whole medium comprising the test products. The products are left in contact with the cells for 18 hours. The cells are then lysed and the luciferase activity is measured using a luminometer. A PPARγ activation factor can then be calculated by means of the activation of the expression of the reporter gene induced by the product (relative to the control cells that have received no product).
In the absence of the PPARγ ligand binding domain (vector expressing Gal4 alone), the luciferase activity measured in the presence of this product is zero.
The following transactivation result was obtained with a concentration of 30 μM on PPARγ.
The transactivation test using the expression of a chimeric protein Gal-4-PPARγ makes it possible to determine also whether an agonist functions as a “full” agonist or as a “partial” agonist in this system.
An agonist is “partial” in this system if it induces a weaker response, i.e. it has lower efficacy, than rosiglitazone, which is a “full” agonist. In concrete terms, in our system, the transactivation obtained at the plateau with a partial agonist will be between 20% and 50% of the maximum response (efficacy) at the plateau of rosiglitazone.

T1 sequence (P37231 238-503 limits assumed, change not shown): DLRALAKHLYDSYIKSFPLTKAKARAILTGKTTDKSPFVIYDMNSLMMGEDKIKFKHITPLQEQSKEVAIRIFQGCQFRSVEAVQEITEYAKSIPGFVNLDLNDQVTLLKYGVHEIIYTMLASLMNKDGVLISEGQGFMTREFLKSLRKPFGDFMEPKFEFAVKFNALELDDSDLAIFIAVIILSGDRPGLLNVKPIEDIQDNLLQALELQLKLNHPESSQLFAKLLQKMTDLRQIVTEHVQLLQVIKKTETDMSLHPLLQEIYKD
T1 sequence (P04386 1-147 partner limits assumed): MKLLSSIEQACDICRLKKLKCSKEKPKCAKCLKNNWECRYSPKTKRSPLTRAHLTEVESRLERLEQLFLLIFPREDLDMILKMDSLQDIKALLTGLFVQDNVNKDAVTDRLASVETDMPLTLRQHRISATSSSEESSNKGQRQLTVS

Activation factor of the chimeric protein PPARγ-Gal4 (concentration 30 μM, 18 hours contact, relative to control cells that have received no product (control = 1)) | Structure (SMILES) | Concentration to reach the maximum stimulation of the PPARγ chimeric protein (Gal4-PPARγ transactivation, plateau) | Emax (transactivation at the plateau as % of the maximum response (efficacy) of rosiglitazone, read-out: Maximum stimulation of the PPARγ chimeric protein obtained with rosiglitazone)
 | Cc1oc(-c2ccccc2)nc1COc1cc2c(cc1-c1ccc(C(=O)O)cc1)CCC2=O [Example 4, 4-[6-(5-Methyl-2-phenyloxazol-4-ylmethoxy)-1-oxoindan-5-yl]-benzoic acid] | 6.25 µM | 23%
16 | Cc1cc(COc2cc3c(cc2-c2ccc(C(=O)O)cc2)CCC3=O)no1 [Example 29, 4-[6-(5-methylisoxazol-3-ylmethoxy)-1-oxoindan-5-yl]benzoic acid] |  | 
